# Source: patent US6143910A, “Methods for preparation and use of 1α, 24(S) -dihydroxy vitamin D2” (priority 1998, dated 2000)
# “Also recorded” adds a separate entry of the source.
# Tests used:
# [1] = biological target: T1, vitamin D receptor (VDR) (Homo sapiens, UniProt P11473); assay: Vitamin D-dependent transcriptional activation, growth hormone production in co-transfected COS-1 cells; format: cell-based
# T1 sequence (P11473 1-427): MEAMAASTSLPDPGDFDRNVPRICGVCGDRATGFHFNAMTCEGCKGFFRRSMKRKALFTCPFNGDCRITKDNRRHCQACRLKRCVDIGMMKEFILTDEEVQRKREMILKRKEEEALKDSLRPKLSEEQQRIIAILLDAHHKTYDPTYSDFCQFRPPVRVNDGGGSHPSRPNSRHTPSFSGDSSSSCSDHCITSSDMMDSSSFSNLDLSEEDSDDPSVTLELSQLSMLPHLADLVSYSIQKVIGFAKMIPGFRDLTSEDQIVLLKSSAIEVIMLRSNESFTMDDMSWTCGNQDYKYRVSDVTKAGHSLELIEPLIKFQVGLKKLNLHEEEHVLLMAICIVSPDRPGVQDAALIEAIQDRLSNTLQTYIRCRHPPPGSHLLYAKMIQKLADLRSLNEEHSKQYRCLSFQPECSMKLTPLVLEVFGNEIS
# Method: The biological activity in vitro of chemically synthesized 1α,24(S)-(OH)2 D2 and 1α,24(R)-(OH)2 D2 was measured using a vitamin D-dependent transcriptional activation model system in which a vitamin D receptor (VDR)-expressing plasmid pSG5-hVDR1/3and a plasmid p(CT4)^4 TKGH containing a Growth Hormone (GH)-gene, under the control of a vitamin D-responsive element (VDRE) were co-transfected into Green monkey kidney, COS-1 cells. DNA's for these two vectors were supplied by Dr. Mark Haussler, Department of Biochemistry, University of Arizona, Tucson, Ariz.
# Tranfected cells were incubated with vitamin D metabolites and growth hormone production was measured.
# [2] = biological target: T2, bovine thymus VDR (Bos taurus, UniProt Q28037); assay: Radioreceptor assay with bovine thymus VDR (Incstar), displacement of 3H-1α,25-(OH)2 D3; format: binding
# T2 construct: commercially available kit of bovine thymus VDR; purchased Incstar (Stillwater, Minn.); host or cells: bovine thymus
# T2 sequence (Q28037 1-426): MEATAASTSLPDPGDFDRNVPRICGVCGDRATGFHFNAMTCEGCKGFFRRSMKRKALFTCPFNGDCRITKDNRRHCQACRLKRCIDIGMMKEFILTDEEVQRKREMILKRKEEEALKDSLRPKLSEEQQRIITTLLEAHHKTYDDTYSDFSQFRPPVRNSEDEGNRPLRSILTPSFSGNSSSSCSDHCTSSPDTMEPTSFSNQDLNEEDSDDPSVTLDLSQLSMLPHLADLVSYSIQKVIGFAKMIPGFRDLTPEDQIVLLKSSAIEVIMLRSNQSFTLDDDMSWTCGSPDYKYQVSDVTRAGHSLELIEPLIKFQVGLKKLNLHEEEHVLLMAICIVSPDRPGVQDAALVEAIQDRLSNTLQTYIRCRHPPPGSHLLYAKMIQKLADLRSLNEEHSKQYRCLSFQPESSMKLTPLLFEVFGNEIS
# Excerpt: Purified 1α,24(S)-(OH)2 D2 was quantitated by photodiode array spectrophotometry and assayed in the radioreceptor assay.
# The purified 1α,24(R)-(OH)2 D2 and 1α,24(S)-(OH)2 D2 epimers were quantitated by ultraviolet spectroscopy. The concentration of 1α,24(R)-(OH)2 D2 required to produce the same displacement of ^3 H-1α,25-(OH)2 D3 tracer from the receptor was 20 to 30 times that required for 1α,24(S)-(OH)2 D2, as shown in FIG. 4.
# [3] = Preventive treatment of bone mass loss in postmenopausal osteoporotic women; format: in vivo, human; conditions: at or above 1.0 μg/day, 24 to 36 months
# Method: A clinical study is conducted with postmenopausal osteoporotic out-patientshaving ages between 55 and 75 years. The study involves up to 120 patients randomly divided into three treatment groups and continues for 24 to 36 months. Two of the treatment groups receive constant dosages of 1α,24(S)-dihydroxy vitamin D2 (u.i.d.; two different dose levels at or above 1.0 μg/day) and the other group receives a matching placebo. All patients maintain a normal intake of dietary calcium (500 to 800 mg/day) and refrain from using calcium supplements. Efficacy is evaluated by pre- and post-treatment comparisons of the patient groups with regard to (a) total body calcium retention, and (b) radial and spinal bone mineral density as determined by dual-photon absorptiometry (DPA) or dual-energy x-ray absorptiometry (DEXA). Safety is evaluated by comparisons of urinary hydroxyproline excretion, serum and urine calcium levels, creatinine. clearance, blood urea nitrogen, and other routine determinations.
# [4] = Hypocalcemia and metabolic bone disease in chronic hemodialysis patients; format: in vivo, human; conditions: greater than 3.0 μg/day, twelve months
# Method: A twelve-month, double-blind, placebo-controlled clinical trial is conducted with thirty men and women with renal disease who are undergoing chronic hemodialysis. […] Efficacy is evaluated by pre- and post-treatment comparisons of the two patient groups with regard to (a) direct measurements of intestinal calcium absorption, (b) total body calcium retention, (c) radial and spinal bone mineral density, or (d) determinations of serum calcium. Safety is evaluated by regular monitoring of serum calcium.
# [5] = test system: Human keratinocytes; assay: Epidermal cell differentiation and proliferation testing; format: cell-based; conditions: 0.05 to 5 μg/ml
# Method: Human keratinocytes are cultured according to known modifications of the system originally described by Rheinwald and Green (Cell, vol. 6, p. 331 (1975)). The 1α,24(S)-dihydroxy vitamin D2, dissolved in ethanol, is added to cells to yield a variety of concentrations between 0.05 and 5 μg/ml with the ethanol concentration not to exceed 0.5% v/v. Control cultures are supplemented with ethanol at a final concentration of 0.5% v/v.
# Differentiation and proliferation of epidermal cells in culture is examined by:
# 1. quantitation of cornified envelopes;
# 2. quantitation of cell density of cells attached to disks;
# 3. monitoring transglutaminase activity; or
# 4. monitoring DNA synthesis by incorporation of ^3 H-thymidine.
# [6] = test system: HL-60 promyelocytes; assay: HL-60 cell differentiation assay; format: cell-based; conditions: dose-response study
# Method: A dose-response study is conducted with 1α,24(S)-(OH)2 D2 in the HL-60 cell differentiation assay as described by DeLuca and Ostrom (DeLuca, H. F. and Ostrem, V. K., Prog. Clin. Biol. Res., vol. 259, pp. 41-55 (1988)). In this study, 1α,25-(OH)2 D3 is used as a positive control and appropriate solvents are used as negative controls. The following variables are evaluated: nonspecific acid esterase activity, nitroblue tetrazolium (NBT) reduction, and thymidine incorporation.
compound,measurement,setting,value
"C=C1/C(=C\C=C2/CCC[C@]3(C)[C@@H]([C@H](C)/C=C/[C@@](C)(O)C(C)C)CC[C@@H]23)C[C@@H](O)C[C@@H]1O [1α,24(S)-(OH)2 D2, 1α,24(S)-dihydroxy Vitamin D2]","Activity in the transcriptional activation system compared with 1α,24(R)-(OH)2 D2",[1],significantly more activity
same,"Affinity for VDR relative to 1α,25-(OH)2 D3",[2],two-fold less competitive; also recorded: two-fold lower affinity
same,Incidence of hypercalcemia or hypercalciuria,[3],insignificant incidence
same,"Total body calcium, radial and spinal bone densities versus placebo",[3],significantly higher
same,Incidence of hypercalcemia,[4],insignificant incidence of hypercalcemia
same,Radial and spinal bone densities,[4],stable radial and spinal bone densities relative to baseline values
same,Serum calcium levels,[4],normalized serum calcium levels
same,Total body calcium,[4],stable values for total body calcium
same,Cell density of attached cells versus control cultures,[5],fewer attached cells
same,Cornified envelopes versus control cultures,[5],more cornified envelopes
same,DNA synthesis (3H-thymidine incorporation) versus control cultures,[5],lower DNA synthesis
same,Transglutaminase activity versus control cultures,[5],higher transglutaminase activity
same,Promotion of differentiation of HL-60 promyelocytes to monocytes,[6],potent activity
